Data from US20240368191A1, “HETEROCYCLIC COMPOUNDS AND USES THEREOF” (Kumquat Biosciences Inc., priority 2021, published 2024).

Biological target: T1, KRAS G12D 1-169 (His-tagged, GDP-loaded) (Homo sapiens, UniProt P01116, G12D)
T1 construct: His -tagged GDP-loaded G12D 1-169; made in house; host or cells: E. coli, e.g. BL21 (DE3)
Assay: Covalent modification of KRAS protein by intact-protein LC-MS
Format: binding
Details: comparable or same conditions as K-Ras G12S
Method: Test compounds are prepared as 10 mM stock solutions in DMSO (Fisher cat #BP231-100). KRAS protein (His -tagged GDP-loaded wildtype 1-169, His -tagged GDP-loaded G12S 1-169 or His -tagged GDP-loaded G12D 1-169) is diluted to ˜2 μM in appropriate buffer (e.g., a Hepes buffer at physiological conditions). For testing KRAS modification, compounds are diluted to 50× final test concentration in DMSO in 96-well storage plates. 2 μl of the diluted 50× compounds are added to appropriate wells in the PCR plate (Fisher cat #AB-0800). ˜49 μl of the stock protein solution is added to each well of the 96-well PCR plate. Reactions are mixed carefully. The plate is sealed well with aluminum plate seal, and stored in drawer at room temperature for 24 hrs. 5 μl of 2% formic acid (Fisher cat #A117-50) in MilliQ H2O is then added to each well followed by mixing with a pipette. The plate is then resealed with aluminum seal and stored until mass spectrometry analysis.
The extent of covalent modification of KRAS proteins was determined by liquid chromatography electrospray mass spectrometry analysis of the intact proteins on a Thermo Q-Exactive Plus mass spectrometer. 20 μl of sample was injected onto a bioZen 3.6 μm Intact C4 column (Phenomenex cat #00B-4767-AN) placed in a column oven set to 40° C. and separated using a suitable LC gradient from ˜20% to ˜60% solvent B. Solvent A was 0.1% formic acid and solvent B was 0.1% formic acid in acetonitrile. HESI source settings were set to 40, 5 and 1 for the sheath, auxiliary and sweep gas flow, respectively. The spray voltage was 4 kV, and the capillary temperature was 320° C. S-lens RF level was 50 and auxiliary gas heater temperature was set to 200° C. The mass spectrometry was acquired using a scan range from 650 to 1750 m/z using positive polarity at a mass resolution of 70,000, AGC target of 1e6 ions and maximum injection time of 250 ms. The recorded protein mass spectrum was deconvoluted from the raw data file using Protein Deconvolution v4.0 (Thermo). The protein mass and adduct masses were exported with their peak intensities. The peak intensities for the unmodified and modified protein were used to calculate the percent covalent modification of the KRAS protein based on the following equation: % KRAS protein modification=((KRAS−compound)/(KRAS)+(KRAS−Compound))*100.

T1 sequence (P01116 1-169 isoform P01116-2 G12D): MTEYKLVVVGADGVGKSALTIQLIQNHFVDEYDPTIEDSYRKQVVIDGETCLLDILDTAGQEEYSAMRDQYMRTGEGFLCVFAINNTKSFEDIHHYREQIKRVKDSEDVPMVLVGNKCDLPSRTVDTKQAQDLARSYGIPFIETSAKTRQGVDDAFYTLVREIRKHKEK

| covalent labeling of K-Ras G12D | SMILES |
| --- | --- |
| essentially no detectable labeling | N#Cc1c(N)sc2c(F)ccc(-c3c(Cl)cc4c(OC5CCCCN(C(=O)n6cncn6)C5)nc(OC[C@@]56CCCN5C[C@H](F)C6)nc4c3F)c12 (stereo partly drawn) [Compound A258, 4-(4-((1-(1H-1,2,4-triazole-1-carbonyl)azepan-3-yl)oxy)-6-chloro-8-fluoro-2-(((2R,7aS)-2-fluorotetrahydro-1H-pyrrolizin-7a(5H)-yl)methoxy)quinazolin-7-yl)-2-amino-7-fluorobenzo-[b]thiophene-3-carbonitrile] |
| essentially no detectable labeling | Nc1nc2c(-c3c(Cl)cc4c(N5CCCCC6(CN(C(=O)n7cncn7)C6)C5)nc(OC[C@@]56CCCN5C[C@H](F)C6)nc4c3F)ccc(F)c2s1 [Compound A265, (6-(7-(2-amino-7-fluorobenzo-[d]thiazol-4-yl)-6-chloro-8-fluoro-2-(((2R,7aS)-2-fluoro-tetrahydro-1H-pyrrolizin-7a(5H)-yl)methoxy)quinazolin-4-yl)-2,6-diazaspiro[3.6]decan-2-yl)(1H-1,2,4-triazol-1-yl)-methanone] |
| essentially no detectable labeling | N#Cc1c(N)sc2c(F)ccc(-c3c(Cl)cc4c(N5CCCC6(CCN(C(=O)n7cncn7)C6)C5)nc(OC[C@@]56CCCN5C[C@H](F)C6)nc4c3F)c12 (stereo partly drawn) [Compound A269, 4-(4-(2-(1H-1,2,4-triazole-1-carbonyl)-2,7-diazaspiro[4.5]-decan-7-yl)-6-chloro-8-fluoro-2-(((2R,7aS)-2-fluorotetrahydro-1H-pyrrolizin-7a(5H)-yl)meth-oxy)quinazolin-7-yl)-2-amino-7-fluorobenzo[b]thiophene-3-carbonitrile] |
| essentially no detectable labeling | C[C@H](Oc1nc(N2CCOC3(CN(C(=O)n4cncn4)C3)C2)c2cc(Cl)c(-c3ccc(F)c4sc(N)c(C#N)c34)c(F)c2n1)[C@@H]1CCCN1C [Compound A275, 4-(4-(2-(1H-1,2,4-triazole-1-carbonyl)-5-oxa-2,8-diazaspiro-[3.5]nonan-8-yl)-6-chloro-8-fluoro-2-((S)-1-((S)-1-methyl-pyrrolidin-2-yl)ethoxy)quin-azolin-7-yl)-2-amino-7-fluoro-benzo[b]thiophene-3-carbonitrile] |
| essentially no detectable labeling | Nc1nc2c(-c3c(Cl)cc4c(N5CC6(CCN(C(=O)n7cncn7)C6)C5)nc(OC[C@@]56CCCN5C[C@H](F)C6)nc4c3F)ccc(F)c2s1 [Compound A279, (2-(7-(2-amino-7-fluorobenzo-[d]thiazol-4-yl)-6-chloro-8-fluoro-2-(((2R,7aS)-2-fluoro-tetrahydro-1H-pyrrolizin-7a(5H)-yl)methoxy)quinazolin-4-yl)-2,6-diazaspiro[3.4]octan-6-yl)(1H-1,2,4-triazol-1-yl)-methanone] |
| essentially no detectable labeling | Cc1nc(C)n(C(=O)N2CC3(C2)CN(c2nc(OC[C@@]45CCCN4C[C@H](F)C5)nc4c(F)c(-c5ccc(F)c6sc(N)c(C#N)c56)c(Cl)cc24)CCO3)n1 [Compound A283, 2-amino-4-(6-chloro-4-(2-(3,5-dimethyl-1H-1,2,4-triazole-1-carbonyl)-5-oxa-2,8-diazaspiro-[3.5]nonan-8-yl)-8-fluoro-2-(((2R,7aS)-2-fluorotetrahydro-1H-pyrrolizin-7a(5H)-yl)meth-oxy)quinazolin-7-yl)-7-fluoro-benzo[b]thiophene-3-carbonitrile] |
| essentially no detectable labeling | N#Cc1c(N)sc2c(F)ccc(-c3c(Cl)cc4c(N5CC6(CCCCN(C(=O)n7cncn7)C6)C5)nc(OC[C@@]56CCCN5C[C@H](F)C6)nc4c3F)c12 [Compound A285, 4-(4-(6-(1H-1,2,4-triazole-1-carbonyl)-2,6-diazaspiro[3.6]-decan-2-yl)-6-chloro-8-fluoro-2-(((2R,7aS)-2-fluorotetra-hydro-1H-pyrrolizin-7a(5H)-yl)methoxy)quinazolin-7-yl)-2-amino-7-fluorobenzo[b]thio-phene-3-carbonitrile] |
| essentially no detectable labeling | C#Cc1c(F)ccc2cc(O)cc(-c3ncc4c(N5CCOCC6(CN(C(=O)n7cnc(C)n7)C6)C5)nc(OC[C@@]56CCCN5C[C@H](F)C6)nc4c3F)c12 [Compound A298, (9-(7-(8-ethynyl-7-fluoro-3-hydroxynaphthalen-1-yl)-8-fluoro-2-(((2R,7aS)-2-fluoro-tetrahydro-1H-pyrrolizin-7a(5H)-yl)methoxy)pyrido[4,3-d]pyrimidin-4-yl)-6-oxa-2,9-diazaspiro[3.6]decan-2-yl)(3-methyl-1H-1,2,4-triazol-1-yl)-methanone] |
| essentially no detectable labeling | Cc1ncn(C(=O)N2CCCC(Oc3nc(OC[C@@]45CCCN4C[C@H](F)C5)nc4c(F)c(-c5ccc(F)c6sc(N)c(C#N)c56)c(Cl)cc34)C2)n1 (stereo partly drawn) [Compound A302, 2-amino-4-(6-chloro-8-fluoro-2-(((2R,7aS)-2-fluorotetrahydro-1H-pyrrolizin-7a(5H)-yl)meth-oxy)-4-((1-(3-methyl-1H-1,2,4-triazole-1-carbonyl)piperidin-3-yl)oxy)quinazolin-7-yl)-7-fluorobenzo[b]thiophene-3-carbonitrile] |
| essentially no detectable labeling | Cc1ncn(C(=O)N2CC3CCN(c4nc(OC[C@@]56CCCN5C[C@H](F)C6)nc5c(F)c(-c6ccc(F)c7sc(N)c(C#N)c67)c(Cl)cc45)C3C2)n1 (stereo partly drawn) [Compound A304, 2-amino-4-(6-chloro-8-fluoro-2-(((2R,7aS)-2-fluorotetrahydro-1H-pyrrolizin-7a(5H)-yl)meth-oxy)-4-(5-(3-methyl-1H-1,2,4-triazole-1-carbonyl)hexahydro-pyrrolo[3,4-b]pyrrol-1(2H)-yl)quinazolin-7-yl)-7-fluoro-benzo[b]thiophene-3-carbonitrile] |

Tested on: not listed separately
Assay: Metabolic (microsomal) stability assay
Details: pooled liver microsomes, pH 7.4

| SMILES | half-life at 0.5 μM [min] |
| --- | --- |
| N#Cc1c(N)sc2c(F)ccc(-c3c(Cl)cc4c(N5CCC6CN(C(=O)Nc7ncccn7)CCC65)nc(OC[C@@]56CCCN5C[C@H](F)C6)nc4c3F)c12 (single isomer, unassigned) [Compound A271] | > 10 |
| C#Cc1c(F)ccc2cc(O)cc(-c3ncc4c(N5CCOC6(CN(C(=O)n7cncn7)C6)C5)nc(OC[C@@]56CCCN5C[C@H](F)C6)nc4c3F)c12 [Compound A106, (8-(7-(8-ethynyl-7-fluoro-3-hydroxynaphthalen-1-yl)-8-fluoro-2-(((2R,7aS)-2-fluoro-tetrahydro-1H-pyrrolizin-7a(5H)-yl)methoxy)pyrido-[4,3-d]pyrimidin-4-yl)-5-oxa-2,8-diazaspiro[3.5]nonan-2-yl)(1H-1,2,4-triazol-1-yl)-methanone] | > 10 |
| N#Cc1c(N)sc2c(F)ccc(-c3c(Cl)cc4c(N5CCCC6(CN(C(=O)n7cncn7)C6)C5)nc(OC[C@@]56CCCN5C[C@H](F)C6)nc4c3F)c12 [Compound A129, 4-(4-(2-(1H-1,2,4-triazole-1-carbonyl)-2,6-diazaspiro[3.5]-nonan-6-yl)-6-chloro-8-fluoro-2-(((2R,7aS)-2-fluorotetrahydro-1H-pyrrolizin-7a(5H)-yl)meth-oxy)quinazolin-7-yl)-2-amino-7-fluorobenzo[b]thiophene-3-carbonitrile] | > 10 |
| N#Cc1c(N)sc2c(F)ccc(-c3c(Cl)cc4c(N5CCOC6(CN(C(=O)n7cncn7)C6)C5)nc(OC[C@@]56CCCN5C[C@H](F)C6)nc4c3F)c12 [Compound A132, 4-(4-(2-(1H-1,2,4-triazole-1-carbonyl)-5-oxa-2,8-diaza-spiro[3.5]nonan-8-yl)-6-chloro-8-fluoro-2-(((2R,7aS)-2-fluorotetrahydro-1H-pyrrolizin-7a(5H)-yl)methoxy)quinazolin-7-yl)-2-amino-7-fluorobenzo-[b]thiophene-3-carbonitrile] | > 10 |
| Nc1nc2c(-c3c(Cl)cc4c(N5CCCC6(CN(C(=O)n7cncn7)C6)C5)nc(OC[C@@]56CCCN5C[C@H](F)C6)nc4c3F)ccc(F)c2s1 [Compound A136, (6-(7-(2-amino-7-fluorobenzo-[d]thiazol-4-yl)-6-chloro-8-fluoro-2-(((2R,7aS)-2-fluoro-tetrahydro-1H-pyrrolizin-7a(5H)-yl)methoxy)quinazolin-4-yl)-2,6-diazaspiro[3.5]nonan-2-yl)(1H-1,2,4-triazol-1-yl)-methanone] | > 10 |
